Like-named read-outs stand apart in the source and are kept apart here.
Experiments:
[1] = target: T1, SARS-CoV-2 nsp13 (Severe acute respiratory syndrome coronavirus 2, UniProt P0DTD1); settings: read-out: IC50 vs unwinding; cited from earlier work
[2] = tested on: SARS-CoV-2; settings: read-out: EC50 antiviral activity; cited from earlier work
[3] = target: T1, SARS-CoV-2 nsp13; experiment: SARS-CoV-2 nsp13 unwinding-associated activity assay; assay type: biochemical; settings: for IC50: SARS-CoV-2 nsp13-associated unwinding activity, means ± SD from two experiments in triplicate, read-out: Activity in enzyme assay IC50 Unwinding BSA-TCEP; for selectivity for unwinding over ATPase: IC50 ATPase vs IC50 unwinding
[4] = target: T1, SARS-CoV-2 nsp13; experiment: SARS-CoV-2 nsp13 ATPase-associated activity assay; assay type: biochemical; settings: for IC50: read-out: Activity in enzyme assay IC50 ATPase BSA-TCEP
[5] = tested on: SARS-CoV-2; experiment: SARS-CoV-2 plaque assay in infected Vero E6 cells; assay type: cell-based; settings: for EC50: Severe acute respiratory syndrome coronavirus 2, plaque assay, means ± SD, n = 9, read-out: EC50, concentration reducing SARS-CoV-2 replication in Vero cells by 50%
[6] = in vitro; settings: African green monkey
[7] = target: T1, SARS-CoV-2 nsp13; experiment: Mode-of-action assay (incubation-dependent potency, covalent/noncovalent); assay type: biochemical; settings: for IC50: read-out: IC50 at time-point
[8] = target: T1, SARS-CoV-2 nsp13; set-up: method as in PMID 37562607; settings: SARS-CoV-2 nsp13 unwinding; cited from earlier work
[9] = target: T1, SARS-CoV-2 nsp13; set-up: method as in PMID 37562607; settings: SARS-CoV-2 nsp13 ATPase; cited from earlier work
[10] = tested on: SARS-CoV-2; set-up: method as in PMID 37562607; settings: cited from earlier work; for EC50: read-out: EC50 SARS-CoV-2 replication
[11] = tested on: Vero cells; set-up: method as in PMID 37562607; settings: cited from earlier work
[12] = tested on: HCoV229E; set-up: method as in PMID 37562607; settings: cited from earlier work
[13] = tested on: MERS-CoV; settings: cited from earlier work
[14] = SARS-CoV-2 nsp13-associated ATPase activity, means ± SD from two experiments in triplicate

| SMILES | IC50 [3] [µM] | IC50 [4, 14] [µM] | SI = CC50/EC50 [5] | EC50 [5] [µM] | CC50 [6] [µM] | also measured |
| --- | --- | --- | --- | --- | --- | --- |
| C=CCn1c(S)nnc1CSc1ccccc1[N+](=O)[O-] [SSYA10‐001] |  |  |  |  |  | IC50 [1]: 7.5 µM; EC50 [2]: 81 µM |
| CCOC(=O)/C(O)=C/C(=O)/C=C/c1cn(-c2ccc(C#N)cc2)c2ccccc12 [Compound 6g] | 6.26 ± 0.65 | 2.35 ± 0.4 | >8 | 11.8 ± 7.45 | > 100 |  |
| O=C(/C=C(\O)C(=O)O)/C=C/c1cn(-c2ccc(C(F)(F)F)cc2)c2ccccc12 [Compound 5h] | 0.21 ± 0.11 | 14.2 ± 1.6 | >21 | 4.56 ± 1.86 | > 100 | selectivity for unwinding over ATPase [3]: 30 fold |
| O=C(/C=C(\O)C(=O)O)/C=C/c1cn(-c2ccccc2)c2ccccc12 [Compound 5d] | 11.8 ± 0.48 | 13.1 ± 0.37 |  |  |  |  |
| CCOC(=O)/C(O)=C/C(=O)/C=C/c1cn(-c2ccccc2)c2ccccc12 [Compound 6d] | 3.77 ± 0.13 | 4.94 ± 0.21 |  |  |  |  |
| CCOC(=O)/C(O)=C/C(=O)/C=C/c1cn(-c2ccc(C(F)(F)F)cc2)c2ccccc12 [Compound 6h] | 3.11 ± 0.55 | 1.21 ± 0.16 | >21 | 4.69 ± 1.8 | > 100 | IC50 ([7]; 1 min after the activation of the reaction): 0.3 µM; IC50 ([7]; 5 min after the activation of the reaction): 0.48 µM; IC50 ([7]; 10 min after the activation of the reaction): 0.79 µM; IC50 ([7]; 15 min after the activation of the reaction): 1.06 µM; IC50 ([7]; 20 min after the activation of the reaction): 1.31 µM; nature of the inhibition ([7]; from time-increased IC50 values): noncovalent; effect of extended preincubation of compound and enzyme on potency ([7]; preincubation +20 min and +50 min at room temperature): did not lead to increasing in inhibitory potency |
| O=C(/C=C(\O)C(=O)O)/C=C/c1cn(-c2ccc(F)cc2)c2ccccc12 [Compound 4] |  |  |  |  |  | IC50 [8]: 4.7 µM; IC50 [9]: 8.2 µM; EC50 [10]: 1.7 µM; CC50 [11]: > 264 µM; activity range on HCoV229E [12]: low micromolar; activity range on MERS-CoV [13]: submicromolar |
| CCOC(=O)/C(O)=C/C(=O)/C=C/c1cn(-c2ccc(C(C)C)cc2)c2ccccc12 [Compound 6c] | 4.16 ± 0.44 | 13.5 ± 3.34 |  |  |  |  |
| CCOC(=O)/C(O)=C/C(=O)/C=C/c1cn(-c2ccc(F)cc2)c2ccccc12 [Compound 3] |  |  |  |  |  | IC50 [8]: 5.9 ± 0.3 µM; IC50 [9]: 13.6 ± 3.2 µM; SI = CC50/EC50 [10]: >16; EC50 [10]: 16.1 ± 3.25 µM; CC50 [11]: > 264 µM; activity range on HCoV229E [12]: low micromolar; activity range on MERS-CoV [13]: submicromolar |
| CC(C)c1ccc(-n2cc(C(=O)/C=C(\O)C(=O)O)c3ccccc32)cc1 [Compound 7c] | 0.7 ± 0.13 | > 30 | >12 | 8.1 ± 1.37 | > 100 | Activity in enzyme assay IC50 ATPase BSA-TCEP [4, 14]: no activity; remaining activity at 30 µM ([4]; given in brackets beside IC50 >30 μM, read-out: Percentage of enzymatic residual activity, ATPase): 63.9% |
| CC(C)c1ccc(-n2cc(/C=C/C(=O)/C=C(\O)C(=O)O)c3ccccc32)cc1 [Compound 5c] | 0.26 ± 0.01 | 8.43 ± 0.04 | >47 | 2.12 ± 0.67 | > 100 | selectivity for unwinding over ATPase [3]: 70 fold |
| CCOC(=O)/C(O)=C/C(=O)c1cn(-c2ccc(C)cc2)c2ccccc12 [Compound 8b] | 17.5 ± 1.37 | 18.6 ± 1.14 |  |  |  |  |
| CCOC(=O)/C(O)=C/C(=O)/C=C/c1cn(-c2ccc(Cl)cc2)c2ccccc12 [Compound 6f] | 2.05 ± 0.03 | 3.39 ± 0.11 | >12 | 8 ± 2.19 | > 100 |  |
| CCOC(=O)/C(O)=C/C(=O)/C=C/c1cn(-c2ccc(OC)cc2)c2ccccc12 [Compound 6a] | 7.59 ± 1.5 | 10.4 ± 0.13 |  |  |  |  |
| COc1ccc(-n2cc(/C=C/C(=O)/C=C(\O)C(=O)O)c3ccccc32)cc1 [Compound 5a] | 2.83 ± 0.54 | 11.2 ± 1.37 |  |  |  |  |

Reference: PMC12276029, “Structure−Activity Relationships of New 1‐Aryl‐1H‐Indole Derivatives as SARS‐CoV‐2 Nsp13 Inhibitors” (Chemmedchem, 2025)
